Test results taken from publication PMC2787699 (Biochemistry, 2009).

Target: T1, TalrD/GalrD (Salmonella enterica, UniProt Q8ZL58)
T1 sequence (Q8ZL58 1-398): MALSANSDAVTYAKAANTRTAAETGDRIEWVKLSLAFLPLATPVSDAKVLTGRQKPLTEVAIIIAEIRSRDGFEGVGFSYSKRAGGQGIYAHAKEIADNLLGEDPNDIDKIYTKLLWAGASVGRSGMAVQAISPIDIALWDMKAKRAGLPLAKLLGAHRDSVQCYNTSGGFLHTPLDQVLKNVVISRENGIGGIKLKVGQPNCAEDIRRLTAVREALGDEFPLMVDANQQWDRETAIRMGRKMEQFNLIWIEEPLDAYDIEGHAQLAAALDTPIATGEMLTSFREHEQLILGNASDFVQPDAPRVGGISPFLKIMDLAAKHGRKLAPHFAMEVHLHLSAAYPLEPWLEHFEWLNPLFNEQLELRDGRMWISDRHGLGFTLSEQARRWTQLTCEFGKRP
Test: polarimetry at […] nm, product formation
Assay type: biochemical
Details: 10 mM galactarate, 50 mM Hepes pH 8.0, 5 mM MgCl2, room temperature

O=C(O)[C@@H](O)[C@H](O)[C@H](O)[C@@H](O)C(=O)O [galactarate]
polarimetry at 589 nm, product formation: TalrD/GalrD produces a product with a positive rotation
